The results in this text go back to patent publication US12503438B2, “Compounds for the treatment of kinase-dependent disorders” (Exelixis, Inc., priority 2019, dated 2025).

One may read the IC50 as the concentration that inhibits the measured activity by half.

Bounds are passed on as bounds.

For one experiment, the target named is T1, Mer (Homo sapiens, UniProt Q12866).
T1 construct: host or cells: 293A cells (Thermo Fisher #R70507)
T1 sequence (Q12866 21-999): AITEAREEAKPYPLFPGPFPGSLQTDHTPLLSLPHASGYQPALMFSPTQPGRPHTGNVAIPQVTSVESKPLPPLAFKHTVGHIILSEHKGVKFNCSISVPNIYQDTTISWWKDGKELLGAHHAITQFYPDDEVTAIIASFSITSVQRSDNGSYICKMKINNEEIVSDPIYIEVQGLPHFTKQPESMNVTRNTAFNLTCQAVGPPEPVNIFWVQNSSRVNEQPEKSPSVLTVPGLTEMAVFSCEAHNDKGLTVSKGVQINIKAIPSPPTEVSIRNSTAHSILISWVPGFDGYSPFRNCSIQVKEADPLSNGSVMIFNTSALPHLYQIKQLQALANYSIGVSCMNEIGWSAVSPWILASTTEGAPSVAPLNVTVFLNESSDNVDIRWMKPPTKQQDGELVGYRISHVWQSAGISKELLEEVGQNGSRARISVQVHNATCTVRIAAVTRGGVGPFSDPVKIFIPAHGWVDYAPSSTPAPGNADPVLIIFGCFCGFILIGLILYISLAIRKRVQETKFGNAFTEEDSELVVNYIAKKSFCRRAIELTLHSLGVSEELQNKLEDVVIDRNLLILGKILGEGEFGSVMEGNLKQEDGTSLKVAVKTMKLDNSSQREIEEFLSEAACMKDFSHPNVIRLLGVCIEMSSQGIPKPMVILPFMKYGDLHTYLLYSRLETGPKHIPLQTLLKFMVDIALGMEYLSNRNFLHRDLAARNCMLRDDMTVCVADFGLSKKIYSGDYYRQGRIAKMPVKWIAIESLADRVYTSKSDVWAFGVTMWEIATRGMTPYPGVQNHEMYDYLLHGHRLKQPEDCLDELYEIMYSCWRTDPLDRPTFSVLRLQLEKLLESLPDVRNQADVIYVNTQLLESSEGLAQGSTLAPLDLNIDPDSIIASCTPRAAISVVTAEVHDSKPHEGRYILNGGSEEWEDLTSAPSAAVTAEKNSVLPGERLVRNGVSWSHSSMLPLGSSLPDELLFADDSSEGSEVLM
Put plainly: Mer autophosphorylation ELISA in transient transfected 293A cells. The experiment is classed as cell-based. The following applies: cellular activity; MERTK-transfected 293A cells, phospho-Mer ELISA. In a few lines: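 293A cells transiently transfected with human MERTK DNA, then treated 1 h with 8-point compound dilutions in serum-free medium (0.3% DMSO). Phospho-Mer in lysates quantified by sandwich ELISA against phospho-Mer standard; normalised to DMSO (100%) and reference inhibitor (0%), IC50 from 4-parameter logistic fit.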
In general terms: In an ELISA, binding on a coated surface is turned into a signal by an enzyme label.

In a further experiment the target is Met (Homo sapiens, UniProt P08581). Put plainly: Met autophosphorylation ELISA in PC-3 cells. Type of experiment: cell-based. On the set-up: endogenous in cells; host or cells: PC-3 prostate cancer cells (ATCC #CRL-1435). The following applies: cellular activity, HGF-stimulated, phospho-Met ELISA, read-out: c-Met IC50. The gist of the method: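 Phospho-Met (panTyr) sandwich ELISA on lysates of PC-3 cells given 100 ng/mL HGF for 10 min after 1 h compound exposure (8-point curve, 0.3% DMSO) following 3 h serum starvation. Normalised to HGF-stimulated DMSO and reference-inhibitor wells; 4-parameter logistic IC50.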
Sequence of Met (P08581 25-1390): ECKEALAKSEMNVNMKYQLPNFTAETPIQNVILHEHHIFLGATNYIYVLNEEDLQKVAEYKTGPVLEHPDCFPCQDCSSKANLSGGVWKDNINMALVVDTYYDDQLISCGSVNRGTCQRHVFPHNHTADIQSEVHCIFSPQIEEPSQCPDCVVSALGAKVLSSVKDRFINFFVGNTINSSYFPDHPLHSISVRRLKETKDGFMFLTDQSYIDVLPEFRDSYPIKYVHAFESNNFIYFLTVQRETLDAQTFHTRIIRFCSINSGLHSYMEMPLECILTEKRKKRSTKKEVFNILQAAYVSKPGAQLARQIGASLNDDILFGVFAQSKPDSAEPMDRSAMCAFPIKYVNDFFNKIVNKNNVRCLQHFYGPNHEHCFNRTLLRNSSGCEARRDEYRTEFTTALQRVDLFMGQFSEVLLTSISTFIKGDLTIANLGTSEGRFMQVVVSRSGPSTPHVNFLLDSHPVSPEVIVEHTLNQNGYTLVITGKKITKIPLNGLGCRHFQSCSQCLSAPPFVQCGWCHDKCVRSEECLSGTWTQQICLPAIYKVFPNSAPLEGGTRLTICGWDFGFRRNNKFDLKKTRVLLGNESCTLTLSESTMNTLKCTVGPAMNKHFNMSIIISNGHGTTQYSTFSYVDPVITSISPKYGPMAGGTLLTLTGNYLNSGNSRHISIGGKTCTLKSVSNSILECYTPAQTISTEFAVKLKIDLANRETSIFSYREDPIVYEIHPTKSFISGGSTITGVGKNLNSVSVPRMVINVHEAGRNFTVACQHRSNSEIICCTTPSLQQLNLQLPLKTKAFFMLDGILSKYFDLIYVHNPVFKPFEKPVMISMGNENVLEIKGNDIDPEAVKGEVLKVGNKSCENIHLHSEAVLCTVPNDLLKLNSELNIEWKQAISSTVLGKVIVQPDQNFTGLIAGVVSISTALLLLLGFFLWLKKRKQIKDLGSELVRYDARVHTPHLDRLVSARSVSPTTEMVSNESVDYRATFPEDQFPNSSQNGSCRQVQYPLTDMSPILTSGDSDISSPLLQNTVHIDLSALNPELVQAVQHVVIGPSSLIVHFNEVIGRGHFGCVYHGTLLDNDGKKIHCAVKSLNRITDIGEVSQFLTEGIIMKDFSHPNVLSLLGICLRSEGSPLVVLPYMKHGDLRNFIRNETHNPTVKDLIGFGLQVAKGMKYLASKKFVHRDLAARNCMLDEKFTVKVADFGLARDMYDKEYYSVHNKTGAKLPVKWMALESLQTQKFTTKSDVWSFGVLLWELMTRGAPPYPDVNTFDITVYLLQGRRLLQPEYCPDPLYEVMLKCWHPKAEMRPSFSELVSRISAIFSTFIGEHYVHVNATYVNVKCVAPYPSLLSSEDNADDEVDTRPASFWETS

For the compound `Cc1cc(-c2ccc3c(Oc4ccc(NC(=O)C5(C(=O)Nc6ccc(F)cc6)CC5)cc4)ccnc3c2)nn1C` [Compound 101, 1-N-[4-[7-(1,5-Dimethylpyrazol-3-yl)quinolin-4-yl]oxyphenyl]-1-N′-(4-fluorophenyl)cyclopropane-1,1-dicarboxamide], the IC50 on Mer and on Met was 10 to 100 nM in each case.

For `Nc1cc(-c2ccc3c(Oc4ccc(NC(=O)C5(C(=O)Nc6ccc(F)cc6)CC5)cc4)ccnc3c2)ccn1` [Compound 97, 1-N-[4-[7-(2-Aminopyridin-4-yl)quinolin-4-yl]oxyphenyl]-1-N′-(4-fluorophenyl)cyclopropane-1,1-dicarboxamide], the concentration for half-maximal inhibition (IC50) at Mer was no more than 10 nM; at Met, 10 to 100 nM.

As for `Nc1n[nH]cc1-c1ccc2c(Oc3ccc(NC(=O)C4(C(=O)Nc5ccc(F)cc5)CC4)cc3)ccnc2c1` [Compound 90, 1-N-[4-[7-(3-Amino-1H-pyrazol-4-yl)quinolin-4-yl]oxyphenyl]-1-N′-(4-fluorophenyl)cyclopropane-1,1-dicarboxamide], the concentration for half-maximal inhibition (IC50) against Mer and at Met was 10 to 100 nM throughout.

`O=C(Nc1ccc(F)cc1)C1(C(=O)Nc2ccc(Oc3ccnc4cc(-c5cc6ccccn6n5)ccc34)cc2)CC1` [Compound 104, 1-N′-(4-Fluorophenyl)-1-N-[4-(7-pyrazolo[1,5-a]pyridin-2-ylquinolin-4-yl)oxyphenyl]cyclopropane-1,1-dicarboxamide]: the IC50 on Mer and at Met was 100 to 300 nM throughout.

Turning to `Cc1cn(-c2ccc3c(Oc4ccc(NC(=O)C5(C(=O)Nc6ccc(F)cc6)CC5)cc4)ccnc3c2)cn1` [Compound 87, 1-N′-(4-Fluorophenyl)-1-N-[4-[7-(4-methylimidazol-1-yl)quinolin-4-yl]oxyphenyl]cyclopropane-1,1-dicarboxamide], the IC50 on Mer and on Met was 10 to 100 nM in each case.

Consider `O=C(Nc1ccc(F)cc1)C1(C(=O)Nc2ccc(Oc3ccnc4cc(-c5ccn(CF)n5)ccc34)cc2)CC1` [Compound 102, 1-N-[4-[7-[1-(Fluoromethyl)pyrazol-3-yl]quinolin-4-yl]oxyphenyl]-1-N′-(4-fluorophenyl)cyclopropane-1,1-dicarboxamide], for which the IC50 at Mer and at Met was 10 to 100 nM each time.

With `O=C(Nc1ccc(F)cc1)C1(C(=O)Nc2ccc(Oc3ccnc4cc(-c5ccn(C6CC6)n5)ccc34)cc2)CC1` [Compound 98, 1-N-[4-[7-(1-Cyclopropylpyrazol-3-yl)quinolin-4-yl]oxyphenyl]-1-N′-(4-fluorophenyl)cyclopropane-1,1-dicarboxamide], the IC50 against Mer lay within 100 to 300 nM; at Met, 10 to 100 nM.

For the compound `O=C(Nc1ccc(F)cc1)C1(C(=O)Nc2ccc(Oc3ccnc4cc(C5=CCOC5)ccc34)cc2)CC1` [Compound 95, 1-N-[4-[7-(2,5-Dihydrofuran-3-yl)quinolin-4-yl]oxyphenyl]-1-N′-(4-fluorophenyl)cyclopropane-1,1-dicarboxamide], the half-maximal inhibitory concentration (IC50) on Mer and at Met was 10 to 100 nM throughout.

As to `Cc1cc2c(Oc3ccc(NC(=O)C4(C(=O)Nc5ccc(F)cc5)CC4)cc3)ccnc2cc1-c1cc[nH]n1` [Compound 107, 1-N′-(4-Fluorophenyl)-1-N-[4-[6-methyl-7-(1H-pyrazol-3-yl)quinolin-4-yl]oxyphenyl]cyclopropane-1,1-dicarboxamide], the IC50 at Mer lay within 10 to 100 nM; on Met it was 100 to 300 nM.

Regarding `O=C(Nc1ccc(F)cc1)C1(C(=O)Nc2ccc(Oc3ccnc4cc(-c5cnn(CF)c5)ccc34)cc2)CC1` [Compound 94, 1-N-[4-[7-[1-(Fluoromethyl)pyrazol-4-yl]quinolin-4-yl]oxyphenyl]-1-N′-(4-fluorophenyl)cyclopropane-1,1-dicarboxamide], the IC50 against Mer and at Met was 10 to 100 nM in each case.

As for `Cc1ccn(-c2ccc3c(Oc4ccc(NC(=O)C5(C(=O)Nc6ccc(F)cc6)CC5)cc4)ccnc3c2)n1` [Compound 91, 1-N′-(4-Fluorophenyl)-1-N-[4-[7-(3-methylpyrazol-1-yl)quinolin-4-yl]oxyphenyl]cyclopropane-1,1-dicarboxamide], the IC50 against Mer was 100 to 300 nM; at Met it was 10 to 100 nM.

Turning to `Cc1cc2c(Oc3ccc(NC(=O)C4(C(=O)Nc5ccc(F)cc5)CC4)cc3)ccnc2cc1-c1ccn(C)n1` [Compound 108, 1-N′-(4-Fluorophenyl)-1-N-[4-[6-methyl-7-(1-methylpyrazol-3-yl)quinolin-4-yl]oxyphenyl]cyclopropane-1,1-dicarboxamide], the IC50 at Mer and on Met was 100 to 300 nM each time.

As for `Cc1cc(-c2ccc3c(Oc4ccc(NC(=O)C5(C(=O)Nc6ccc(F)cc6)CC5)cc4)ccnc3c2)n[nH]1` [Compound 99, 1-N′-(4-Fluorophenyl)-1-N-[4-[7-(5-methyl-1H-pyrazol-3-yl)quinolin-4-yl]oxyphenyl]cyclopropane-1,1-dicarboxamide], the IC50 against Mer and on Met was 10 to 100 nM each time.

For the compound `Cc1cnn(-c2ccc3c(Oc4ccc(NC(=O)C5(C(=O)Nc6ccc(F)cc6)CC5)cc4)ccnc3c2)c1` [Compound 96, 1-N′-(4-Fluorophenyl)-1-N-[4-[7-(4-methylpyrazol-1-yl)quinolin-4-yl]oxyphenyl]cyclopropane-1,1-dicarboxamide], the half-maximal inhibitory concentration (IC50) on Mer and on Met was 10 to 100 nM throughout.

Take `CC(=O)N1CCC(c2ccc3c(Oc4ccc(NC(=O)C5(C(=O)Nc6ccc(F)cc6)CC5)cc4)ccnc3c2)C1` (stereo not drawn) [Compound 92, 1-N-[4-[7-(1-Acetylpyrrolidin-3-yl)quinolin-4-yl]oxyphenyl]-1-N′-(4-fluorophenyl)cyclopropane-1,1-dicarboxamide]: the IC50 against Mer and at Met was 10 to 100 nM throughout.

As for `O=C(Nc1ccc(F)cc1)C1(C(=O)Nc2ccc(Oc3ccnc4cc(-c5ccccc5)ccc34)cc2)CC1` [Compound 55, 1-N′-(4-Fluorophenyl)-1-N-[4-(7-phenylquinolin-4-yl)oxyphenyl]cyclopropane-1,1-dicarboxamide], the IC50 on Mer and at Met was 100 to 300 nM throughout.

For the compound `CS(=O)(=O)N1CCC(c2ccc3c(Oc4ccc(NC(=O)C5(C(=O)Nc6ccc(F)cc6)CC5)cc4)ccnc3c2)C1` (stereo not drawn) [Compound 93, 1-N′-(4-Fluorophenyl)-1-N-[4-[7-(1-methylsulfonylpyrrolidin-3-yl)quinolin-4-yl]oxyphenyl]cyclopropane-1,1-dicarboxamide], the IC50 lay in the range of 100 to 300 nM at Mer and 10 to 100 nM on Met.

In the case of `Cc1cc2c(Oc3cc(F)c(NC(=O)C4(C(=O)Nc5ccc(F)cc5)CC4)cc3F)ccnc2cc1-c1cnn(C)c1` [Compound 105, 1-N′-[2,5-Difluoro-4-[6-methyl-7-(1-methylpyrazol-4-yl)quinolin-4-yl]oxyphenyl]-1-N-(4-fluorophenyl)cyclopropane-1,1-dicarboxamide], the IC50 against Mer and on Met was 10 to 100 nM in each case.
